According to patent US9457040B2, “Effective treatment of esophageal adenocarcinoma using triciribine and related compounds” (University of South Florida, priority 2007, dated 2016):

Legend:
[1] = molecular target: PKCα (Homo sapiens, UniProt P17252); assay: PKCα kinase activity / phospho-PKCα-T638 immunoblot; type: cell-based; settings: anti-phospho-PKCα-T638 immunoblot
[2] = test system: advanced solid cancers; settings: patients; i.v. days 1, 8, 15 and 22 of a 42 day cycle, 12 to 96 mg/m^2; cited from earlier work
[3] = test system: advanced squamous cell carcinoma of the cervix; settings: cited from earlier work
[4] = cited from earlier work
[5] = test system: metastatic colorectal adenocarcinoma; settings: patients; i.v. over 15 minutes 165 or 250 mg/m^2 once a week in three week intervals; cited from earlier work
[6] = test system: advanced refractory malignancies; settings: patients; i.v. infusion over fifteen minutes once every three weeks, 25 to 350 mg/m^2; cited from earlier work

| kinase activity of PKCα [1] | SMILES | toxicity [2] | responses among twenty-one evaluable patients ([3]; 5 day continuous infusion of at least 35 mg/m^2 every six weeks) | activity (authors' conclusion) ([3]; metastatic or recurrent squamous cell cancer of the cervix, this dose and schedule) | solubility relative to the parent drug [4] | clinical usefulness [5] | therapeutic response [6] | toxicity [6] |
| --- | --- | --- | --- | --- | --- | --- | --- | --- |
| inhibited | Cn1cc(C2=C(c3cn(CCCSC(=N)N)c4ccccc34)C(=O)NC2=O)c2ccccc21 [Ro 31-8220] | – | – | – | – | – | – | – |
| – | CN1N=C(N)c2cn([C@@H]3O[C@H](COP(=O)(O)O)[C@@H](O)[C@H]3O)c3ncnc1c23 [TCN-P, triciribine phosphate] | unexpected clinical toxicity | only two responses were observed | limited activity | more soluble than the parent drug | lack of clinical usefulness | limited therapeutic responses | significant toxicity |
